# Molecular target: T1, human Nav1.6 (hNav1.6) (Homo sapiens, UniProt Q9UQD0)
# T1 construct: expressed in transfected cells; host or cells: HEK-293 (G418 selection)
# Experiment: Modulation of late sodium current (INaL), PatchXpress electrophysiology
# Format: cell-based
# Conditions: HEK293; 1 μM compound; HEK-293 cells expressing recombinant human Nav channel; late current evoked by 300 nM ATX-II; steady-state inhibition; read-out: INaL v1.6 (1 μM, % Inhibition)
# Procedure: Functional characterization of exemplary compounds to modulate INaL expressed by the Nav1.6 voltage-gated sodium channel was accomplished using the PatchXpress™ high throughput electrophysiology platform (Molecular Devices, Sunnyvale, Calif.). HEK-293 cells expressing recombinant, human Nav1.6 (hNav1.6) were grown in DMEM/high-glucose Dulbecco's modified, 10% FBS, 2 mM sodium pyruvate, 10 mM HEPES and 400 μg/mL G418. Cells were grown to 50%-80% confluency prior to harvesting. Trypsinized cells were washed, allowed to recover for 1 hour and then resuspended in extracellular recording solution at a concentration of 1×10^6 cells/ml. The onboard liquid handling facility of the PatchXpress was used for dispensing cells and applying test compounds. Nav late currents were evoked by the application of 300 nM ATX-II. INaL was evoked by depolarizing pulses to 0 mV for 200 ms from a non-inactivating holding potential (e.g., −120 mV) at a frequency of 0.1 Hz. INaL amplitude and stability were determined by analyzing the mean current amplitude over the final 20 ms of the test pulse. […] Percent steady-state inhibition of INaL was calculated as: [(INaL_compound)/(INaL_control)]*100, where INaL_compound and INaL_control represent INaL recorded in the presence or absence of compound, respectively.
# T1 sequence (Q9UQD0 whole entry): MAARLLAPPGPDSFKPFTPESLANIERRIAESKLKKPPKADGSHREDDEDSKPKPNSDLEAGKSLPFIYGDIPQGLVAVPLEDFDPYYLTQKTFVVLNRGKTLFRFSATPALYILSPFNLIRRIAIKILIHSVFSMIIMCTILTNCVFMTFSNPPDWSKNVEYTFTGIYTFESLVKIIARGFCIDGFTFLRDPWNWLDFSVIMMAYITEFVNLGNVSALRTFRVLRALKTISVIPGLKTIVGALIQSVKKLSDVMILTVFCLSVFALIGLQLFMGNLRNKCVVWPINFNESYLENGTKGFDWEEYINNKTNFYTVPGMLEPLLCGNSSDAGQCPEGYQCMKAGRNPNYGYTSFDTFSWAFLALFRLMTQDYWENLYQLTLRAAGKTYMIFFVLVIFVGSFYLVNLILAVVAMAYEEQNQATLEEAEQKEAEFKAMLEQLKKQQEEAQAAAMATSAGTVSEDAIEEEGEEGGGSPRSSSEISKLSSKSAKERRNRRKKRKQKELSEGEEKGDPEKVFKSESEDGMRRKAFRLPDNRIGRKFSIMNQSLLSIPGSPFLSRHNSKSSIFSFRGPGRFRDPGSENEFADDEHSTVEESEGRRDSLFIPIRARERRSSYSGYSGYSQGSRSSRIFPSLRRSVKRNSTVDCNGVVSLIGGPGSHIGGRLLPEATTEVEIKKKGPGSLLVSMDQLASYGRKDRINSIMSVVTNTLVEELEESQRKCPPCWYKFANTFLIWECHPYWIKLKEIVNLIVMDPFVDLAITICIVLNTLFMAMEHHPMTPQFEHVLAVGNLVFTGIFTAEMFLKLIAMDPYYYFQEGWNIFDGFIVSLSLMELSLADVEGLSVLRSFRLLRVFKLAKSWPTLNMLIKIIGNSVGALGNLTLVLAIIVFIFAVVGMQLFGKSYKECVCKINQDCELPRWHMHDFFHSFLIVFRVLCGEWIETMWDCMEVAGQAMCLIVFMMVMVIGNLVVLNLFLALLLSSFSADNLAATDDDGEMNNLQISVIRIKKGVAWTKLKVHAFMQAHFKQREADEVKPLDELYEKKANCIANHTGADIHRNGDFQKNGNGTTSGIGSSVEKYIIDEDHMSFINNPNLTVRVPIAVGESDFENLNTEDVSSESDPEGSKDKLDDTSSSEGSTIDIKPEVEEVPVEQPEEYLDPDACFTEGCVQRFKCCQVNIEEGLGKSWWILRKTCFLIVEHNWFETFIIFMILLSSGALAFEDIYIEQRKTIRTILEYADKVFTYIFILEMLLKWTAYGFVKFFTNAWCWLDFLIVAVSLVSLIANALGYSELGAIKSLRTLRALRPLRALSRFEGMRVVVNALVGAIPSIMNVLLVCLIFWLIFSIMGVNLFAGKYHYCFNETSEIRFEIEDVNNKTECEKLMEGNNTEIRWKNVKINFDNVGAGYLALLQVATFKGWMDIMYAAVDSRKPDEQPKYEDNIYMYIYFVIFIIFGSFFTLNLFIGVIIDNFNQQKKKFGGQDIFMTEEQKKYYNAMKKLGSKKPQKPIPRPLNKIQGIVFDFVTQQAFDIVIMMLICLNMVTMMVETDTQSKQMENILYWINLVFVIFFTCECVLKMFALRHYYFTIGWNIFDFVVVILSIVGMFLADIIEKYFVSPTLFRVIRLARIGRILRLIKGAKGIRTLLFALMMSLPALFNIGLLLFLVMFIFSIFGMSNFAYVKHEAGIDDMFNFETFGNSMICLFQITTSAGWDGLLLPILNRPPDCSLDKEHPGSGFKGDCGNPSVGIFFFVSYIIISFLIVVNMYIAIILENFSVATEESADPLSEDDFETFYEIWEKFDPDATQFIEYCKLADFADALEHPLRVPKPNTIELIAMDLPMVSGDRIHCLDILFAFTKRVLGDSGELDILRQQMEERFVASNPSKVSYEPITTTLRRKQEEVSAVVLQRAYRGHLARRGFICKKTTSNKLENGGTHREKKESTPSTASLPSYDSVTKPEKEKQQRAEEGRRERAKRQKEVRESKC
row,inhibition at 1 µM [%],Compound
1,> 70,O=c1oc2ccc(-c3ccc(OC(F)(F)F)cc3)nc2n1CC(F)(F)F [Compound 33]
2,> 70,"O=c1oc2ccc(-c3ccc(OC(F)(F)F)cc3)nc2n1C[C@@H]1CCCOC1 (single isomer, unassigned) [Compound 67]"
3,< 30,O=c1oc2ncc(-c3ccc(OC(F)(F)F)cc3)cc2n1CC(F)(F)F [Compound 22]
4,> 70,CC(=O)N1CCC[C@@H]1Cn1c(=O)oc2ccc(-c3ccc(OC(F)(F)F)cc3)cc21 [Compound 109]
5,30 to 70,CC(=O)N1CCC[C@H]1Cn1c(=O)oc2ccc(-c3ccc(OC(F)(F)F)cc3)cc21 [Compound 111]
6,30 to 70,O=c1oc2ncc(-c3ccc(OC(F)(F)F)cc3)cc2n1Cc1ccccc1 [Compound 34]
7,< 30,O=C1CCCN1CCn1c(=O)oc2ccc(-c3ccc(OC(F)(F)F)cc3)nc21 [Compound 142]
8,30 to 70,"COC[C@@H]1CCN(C(=O)Cn2c(=O)oc3ccc(-c4ccc(OC(F)(F)F)cc4)cc32)C1 (single isomer, unassigned) [Compound 138]"
9,< 30,Cn1c(=O)oc2ncc(-c3ccc(OC(F)(F)F)cc3)cc21 [Compound 43]
10,< 30,Cc1n[nH]cc1Cn1c(=O)oc2ccc(-c3ccc(OC(F)(F)F)cc3)nc21 [Compound 167]
11,30 to 70,O=c1oc2ccc(-c3ccc(OC(F)(F)F)cc3)nc2n1Cc1ccncn1 [Compound 141]
12,> 70,O=c1oc2ccc(-c3ccc(OC(F)(F)F)cc3)cc2n1CC1CCCCO1 (stereo not shown) [Compound 57]
13,> 70,CCN(CC)C(=O)CCn1c(=O)oc2ccc(-c3ccc(OC(F)(F)F)cc3)cc21 [Compound 28]
14,> 70,O=c1oc2ccc(-c3ccc(OC(F)(F)F)cc3)cc2n1CCc1cnccn1 [Compound 120]
15,> 70,"O=c1oc2ccc(-c3ccc(OC(F)(F)F)cc3)nc2n1C[C@@H]1CCCO1 (single isomer, unassigned) [Compound 64]"
16,30 to 70,CCn1c(=O)oc2ccc(-c3cnc(OCC(F)(F)F)c(F)c3)cc21 [Compound 96]
17,< 30,O=C(Cn1c(=O)oc2ccc(-c3cnc(OCC(F)(F)F)c(F)c3)nc21)N1CCCC1 [Compound 137]
18,30 to 70,O=C(Cn1c(=O)oc2ccc(-c3ccc(OC(F)(F)F)cc3)cc21)N1CCOCC1 [Compound 40]
19,> 70,O=c1oc2ccc(-c3ccc(OC(F)(F)F)cc3)nc2n1CCc1ccncn1 [Compound 146]
20,> 70,O=c1oc2ccc(-c3ccc(OC(F)(F)F)cc3)cc2n1C[C@@H]1CCCO1 [Compound 104]
21,30 to 70,"COC[C@H]1CCN(C(=O)Cn2c(=O)oc3ccc(-c4ccc(OC(F)(F)F)cc4)cc32)C1 (single isomer, unassigned) [Compound 139]"
22,30 to 70,CO[C@@H]1CCN(C(=O)Cn2c(=O)oc3ccc(-c4ccc(OC(F)(F)F)cc4)cc32)C1 [Compound 126]
23,< 30,Cc1noc(C)c1Cn1c(=O)oc2ccc(-c3ccc(OC(F)(F)F)cc3)nc21 [Compound 152]

row,inhibition at 1 µM [%],Compound
1,> 70,Cc1noc(Cn2c(=O)oc3ccc(-c4ccc(OC(F)(F)F)cc4)nc32)n1 [Compound 161]
2,30 to 70,Cn1c(=O)n(CC(F)(F)F)c2cc(-c3ccc(OC(F)(F)F)cc3)ccc21 [Compound 32]
3,> 70,CC(C)n1c(=O)oc2ccc(-c3ccc(OC(F)(F)F)cc3)nc21 [Compound 78]
4,> 70,O=c1oc2ccc(-c3ccc(OC(F)(F)F)cc3)cc2n1Cc1cnccn1 [Compound 131]
5,30 to 70,"O=c1oc2ccc(-c3ccc(OC(F)(F)F)cc3)nc2n1C[C@@H]1CCCCO1 (single isomer, unassigned) [Compound 55]"
6,30 to 70,O=c1[nH]c2cc(-c3ccc(OCC(F)(F)F)nc3)ccc2o1 [Compound 20]
7,< 30,O=c1oc2ncc(-c3ccc(OC(F)(F)F)cc3)cc2n1Cc1ncccn1 [Compound 49]
8,> 70,"O=c1oc2ccc(-c3ccc(OC(F)(F)F)cc3)nc2n1C[C@H]1CCCOC1 (single isomer, unassigned) [Compound 66]"
9,> 70,C[C@@H]1CCCN1C(=O)Cn1c(=O)oc2ccc(-c3ccc(OC(F)(F)F)cc3)nc21 [Compound 134]
10,< 30,COCCCn1c(=O)oc2ccc(-c3ccc(OC(F)(F)F)cc3)cc21 [Compound 15]
11,> 70,CC(O)CCn1c(=O)oc2ccc(-c3ccc(OC(F)(F)F)cc3)nc21 (stereo not shown) [Compound 89]
12,30 to 70,Cn1ncnc1Cn1c(=O)oc2ccc(-c3ccc(OC(F)(F)F)cc3)nc21 [Compound 164]
13,> 70,O=c1oc2ccc(-c3ccc(OC(F)(F)F)cc3)cc2n1CCc1cncnc1 [Compound 117]
14,> 70,O=c1oc2ccc(-c3ccc(OC(F)(F)F)cc3)cc2n1CC1CCCOC1 (stereo not shown) [Compound 72]
15,> 70,O=c1oc2ccc(-c3ccc(OC(F)(F)F)cc3)nc2n1CC1CCOCC1 [Compound 101]
16,< 30,O=c1oc2ncc(-c3ccc(OC(F)(F)F)cc3)cc2n1CCc1ncccn1 [Compound 92]
17,< 30,O=C(Cn1c(=O)oc2ccc(-c3ccc(OC(F)(F)F)cc3)cc21)N1CC[C@@H](O)C1 [Compound 114]
18,> 70,"C[C@H](O)CCn1c(=O)oc2ccc(-c3ccc(OC(F)(F)F)cc3)nc21 (single isomer, unassigned) [Compound 99]"
19,> 70,O=c1oc2ccc(-c3ccc(OC(F)(F)F)cc3)nc2n1CC(F)F [Compound 86]
20,30 to 70,"O=c1oc2ccc(-c3ccc(OC(F)(F)F)cc3)nc2n1C[C@H]1CCCCO1 (single isomer, unassigned) [Compound 54]"
21,> 70,CCn1c(=O)oc2ccc(-c3ccc(OC(F)(F)F)cc3)cc21 [Compound 11]
22,> 70,O=C1Cc2ccc(-c3ccc(OC(F)(F)F)cc3)cc2N1CC(F)(F)F [Compound 4]
23,> 70,"O=c1oc2ccc(-c3ccc(OC(F)(F)F)cc3)cc2n1C[C@@H]1CCOC1 (single isomer, unassigned) [Compound 69]"

row,inhibition at 1 µM [%],Compound
1,< 30,CCn1c(=O)oc2ccc(-c3cnc(OCC(F)(F)F)c(F)c3)nc21 [Compound 71]
2,< 30,"O=c1[nH]c2nc(-c3ccc(OC(F)(F)F)cc3)ccc2o1 [Compound 29, 5-[4-(trifluoromethoxy)phenyl]-3H-oxazolo[4,5-b]pyridin-2-one]"
3,> 70,"C[C@H](Cn1c(=O)oc2ccc(-c3ccc(OC(F)(F)F)cc3)nc21)c1ncccn1 (single isomer, unassigned) [Compound 149]"
4,< 30,O=C(Cn1c(=O)oc2ccc(-c3ccc(OC(F)F)cc3)cc21)N1CCCC1 [Compound 148]
5,> 70,O=c1oc2ccc(-c3ccc(OC(F)(F)F)cc3)nc2n1CC1COC1 [Compound 102]
6,30 to 70,Cn1cnc(Cn2c(=O)oc3ccc(-c4ccc(OC(F)(F)F)cc4)nc32)n1 [Compound 157]
7,> 70,Cc1oncc1Cn1c(=O)oc2ccc(-c3ccc(OC(F)(F)F)cc3)nc21 [Compound 154]
8,30 to 70,CN(CC(F)(F)F)C(=O)Cn1c(=O)oc2ccc(-c3ccc(OC(F)(F)F)cc3)cc21 [Compound 80]
9,> 70,O=c1oc2ccc(-c3ccc(OC(F)(F)F)cc3)cc2n1CC1CCOCC1 [Compound 56]
10,30 to 70,O=c1oc2ccc(-c3ccc(OC(F)(F)F)cc3)nc2n1CCc1ncccn1 [Compound 87]
11,> 70,O=c1oc2ccc(-c3ccc(OC(F)(F)F)cc3)cc2n1CC1CC1 [Compound 12]
12,> 70,Cn1c(=O)oc2ccc(-c3ccc(OC(F)(F)F)cc3)cc21 [Compound 10]
13,> 70,O=C(CCn1c(=O)oc2ccc(-c3ccc(OC(F)(F)F)cc3)cc21)N1CCCC1 [Compound 26]
14,< 30,Cc1cc(OC(F)(F)F)ccc1-c1ccc2oc(=O)n(CC(=O)N3CCCC3)c2n1 [Compound 144]
15,30 to 70,O=C1OCCN1CCCn1c(=O)oc2ccc(-c3ccc(OC(F)(F)F)cc3)cc21 [Compound 31]
16,> 70,Cn1cc(Cn2c(=O)oc3ccc(-c4ccc(OC(F)(F)F)cc4)nc32)cn1 [Compound 151]
17,> 70,[2H]C([2H])([2H])n1c(=O)oc2ccc(-c3ccc(OC(F)(F)F)cc3)nc21 [Compound 93]
18,30 to 70,"O=c1oc2ccc(-c3ccc(OC(F)(F)F)cc3)cc2n1C[C@H]1CCCCO1 (single isomer, unassigned) [Compound 59]"
19,> 70,"O=c1oc2ccc(-c3ccc(OC(F)(F)F)cc3)nc2n1C[C@H]1CC1(F)F (single isomer, unassigned) [Compound 106]"
20,> 70,O=c1oc2ccc(-c3ccc(OC(F)(F)F)cc3)cc2n1C[C@H]1CCCO1 [Compound 105]
21,< 30,CS(=O)(=O)N1CCC[C@@H]1Cn1c(=O)oc2ccc(-c3ccc(OC(F)(F)F)cc3)cc21 [Compound 118]

# Reference: patent US11492345B2, “Compounds and their methods of use” (Praxis Precision Medicines, Inc., priority 2017, dated 2022)
